Data: patent publication US20090048301A1 (IMCLONE SYSTEMS INCORPORATED, priority 2003, published 2009)

System: bovine tubulin
Assay: In vitro tubulin polymerization assay (turbidity at 340 nm)
Assay type: biochemical
Conditions: 10 μM compound, 30 minute data point, vs 1% DMSO control
In short: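 Percent inhibition derives from turbidity (340 nm) at 30 min relative to 1% DMSO controls, read every minute at 37° C. Polymerization mix: 3 mg/ml bovine tubulin, <3% MAPs, in PIPES pH 7 G-PEM with 1 mM GTP, 1 mM MgCl2, 5% glycerol; enhancers also detectable.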

Compound | Tubulin Assay: percent inhibition at 10 μM based on 30 minute data
c1cncc(CCNc2ncccc2-c2nnc(Nc3ccc4c(c3)OCO4)o2)c1 [Compound 200, {3-[5-(Benzo[1,3]dioxol-5-ylamino)-[1,3,4]oxadiazol-2-yl]-pyridin-2-yl}-(2-pyridin-3-yl-ethyl)-amine] | 68%
c1cncc(CCNc2ncccc2-c2nnc(Nc3ccc4c(c3)OCCO4)o2)c1 [Compound 201, {3-[5-(2,3-Dihydro-benzo[1,4]dioxin-6-ylamino)-[1,3,4]oxadiazol-2-yl]-pyridin-2-yl}-(2-pyridin-3-yl-ethyl)-amine] | 23%
COc1cc(Nc2nnc(-c3cccnc3NCCc3cccnc3)o2)cc(OC)c1OC [Compound 204, (2-Pyridin-3-yl-ethyl)-{3-[5-(3,4,5-trimethoxy-phenylamino)-[1,3,4]oxadiazol-2-yl]-pyridin-2-yl}-amine] | 28%
c1cnc(OCc2ccc3c(c2)OCO3)c(-c2nnc(Nc3ccc4c(c3)OCO4)o2)c1 [Compound 208, Benzo[1,3]dioxol-5-yl-{5-[2-(benzo[1,3]dioxol-5-ylmethoxy)-pyridin-3-yl]-[1,3,4]oxadiazol-2-yl}-amine] | 44%
Brc1cnn(-c2ncccc2-c2nnc(Nc3ccc4c(c3)OCCO4)o2)c1 [Compound 211, {5-[2-(4-Bromo-pyrazol-1-yl)-pyridin-3-yl]-[1,3,4]oxadiazol-2-yl}-(2,3-dihydro-benzo[1,4]dioxin-6-yl)-amine] | 73%
CS(=O)(=O)c1ccc(-c2nnc(-c3cccnc3NCc3ccc(F)cc3)o2)cc1 [Compound 212, (4-Fluoro-benzyl)-{3-[5-(4-methanesulfonyl-phenyl)-[1,3,4]oxadiazol-2-yl]-pyridin-2-yl}-amine] | 38%
COc1cc(Nc2ncccc2-c2nnc(-c3ccc(S(C)(=O)=O)cc3)o2)cc(OC)c1 [Compound 213, (3,5-Dimethoxy-phenyl)-{3-[5-(4-methanesulfonyl-phenyl)-[1,3,4]oxadiazol-2-yl]-pyridin-2-yl}-amine] | 30%
CS(=O)(=O)c1ccc(-c2nnc(-c3cccnc3NCc3cccc(F)c3)o2)cc1 [Compound 214, (3-Fluoro-benzyl)-{3-[5-(4-methanesulfonyl-phenyl)-[1,3,4]oxadiazol-2-yl]-pyridin-2-yl}-amine] | 52%
c1ccc(-c2nnc(Nc3ccc4c(c3)OCCO4)o2)c(NCc2ncc[nH]2)c1 [Compound 220, (2,3-Dihydro-benzo[1,4]dioxin-6-yl)-(5-{2-[(1H-imidazol-2-ylmethyl)-amino]-phenyl}-[1,3,4]oxadiazol-2-yl)-amine] | 79%
c1ccc(-c2nnc(Nc3ccc4c(c3)OCCO4)o2)c(NCc2cnccn2)c1 [Compound 221] | 80%
c1ccc(-c2nnc(Nc3ccc4c(c3)OCCO4)o2)c(NCc2ccc3[nH]ncc3c2)c1 [Compound 222, (2,3-Dihydro-benzo[1,4]dioxin-6-yl)-(5-{2-[(1H-indazol-5-ylmethyl)-amino]-phenyl}-[1,3,4]oxadiazol-2-yl)-amine] | 95%
c1ccc(-c2nnc(Nc3ccc4c(c3)OCCO4)o2)c(NCc2cncnc2)c1 [Compound 226, (2,3-Dihydro-benzo[1,4]dioxin-6-yl)-(5-{2-[(pyrimidin-5-ylmethyl)-amino]-phenyl}-[1,3,4]oxadiazol-2-yl)-amine] | 94%
c1ccc(-c2nnc(Nc3ccc4c(c3)OCCO4)o2)c(NCc2ccc3ncccc3c2)c1 [Compound 227, (2,3-Dihydro-benzo[1,4]dioxin-6-yl)-(5-{2-[(quinolin-6-ylmethyl)-amino]-phenyl}-[1,3,4]oxadiazol-2-yl)-amine] | 99%
CN(C)c1ccc(-c2nnc(Nc3ccc4c(c3)OCCO4)o2)c(NCc2cccnc2)c1 [Compound 229, (2,3-Dihydro-benzo[1,4]dioxin-6-yl)-(5-{4-dimethylamino-2-[(pyridin-3-ylmethyl)-amino]-phenyl}-[1,3,4]oxadiazol-2-yl)-amine] | 32%
CN(C)c1ccc(-c2nnc(Nc3ccc4c(c3)OCCO4)o2)c(NCc2ccccn2)c1 [Compound 230, (2,3-Dihydro-benzo[1,4]dioxin-6-yl)-(5-{4-dimethylamino-2-[(pyridin-2-ylmethyl)-amino]-phenyl}-[1,3,4]oxadiazol-2-yl)-amine] | 45%
CN(C)c1ccc(-c2nnc(Nc3ccc4c(c3)OCCO4)o2)c(NCc2ccncc2)c1 [Compound 231] | 28%
CN(C)c1ccc(-c2nnc(Nc3ccc4c(c3)OCCO4)o2)c(NCc2ccc3c(c2)OCO3)c1 [Compound 232, (5-{2-[(Benzo[1,3]dioxol-5-ylmethyl)-amino]-4-dimethylamino-phenyl}-[1,3,4]oxadiazol-2-yl)-(2,3-dihydro-benzo[1,4]dioxin-6-yl)-amine] | 26%

Compound | Tubulin Assay: percent inhibition at 10 μM based on 30 minute data
CN(C)c1ccc(-c2nnc(Nc3ccc4c(c3)OCCO4)o2)c(NCc2ccc(F)c(F)c2)c1 [Compound 233, {5-[2-(3,4-Difluoro-benzylamino)-4-dimethylamino-phenyl]-[1,3,4]oxadiazol-2-yl}-(2,3-dihydro-benzo[1,4]dioxin-6-yl)-amine] | 40%
CN(C)c1ccc(-c2nnc(Nc3ccc4c(c3)OCCO4)o2)c(NCc2cncnc2)c1 [Compound 234, (2,3-Dihydro-benzo[1,4]dioxin-6-yl)-(5-{4-dimethylamino-2-[(pyrimidin-5-ylmethyl)-amino]-phenyl}-[1,3,4]oxadiazol-2-yl)-amine] | 30%
COc1cc(CNc2cc(N3CCN(C)CC3)ccc2-c2nnc(Nc3ccc4c(c3)OCCO4)o2)cc(OC)c1 [Compound 235, (2,3-Dihydro-benzo[1,4]dioxin-6-yl)-{5-[2-(3,5-dimethoxy-benzylamino)-4-(4-methyl-piperazin-1-yl)-phenyl]-[1,3,4]oxadiazol-2-yl}-amine] | 24%
CN1CCN(c2ccc(-c3nnc(Nc4ccc5c(c4)OCCO5)o3)c([N+](=O)[O-])c2)CC1 [Compound 236, (2,3-Dihydro-benzo[1,4]dioxin-6-yl)-{5-[4-(4-methyl-piperazin-1-yl)-2-nitro-phenyl]-[1,3,4]oxadiazol-2-yl}-amine] | 59%
Nc1ccccc1-c1nnc(Nc2ccc3c(c2)OCO3)o1 [Compound 237a, [5-(2-Amino-phenyl)-[1,3,4]oxadiazol-2-yl]-benzo[1,3]dioxol-5-yl-amine] | 53%
COc1ccc(S(=O)(=O)Nc2ccccc2-c2nnc(Nc3ccc4c(c3)OCO4)o2)cc1OC [Compound 238, N-{2-[5-(Benzo[1,3]dioxol-5-ylamino)-[1,3,4]oxadiazol-2-yl]-phenyl}-3,4-dimethoxy-benzenesulfonamide] | 65%
O=S(=O)(Nc1ccccc1-c1nnc(Nc2ccc3c(c2)OCO3)o1)c1cccc(OC(F)(F)F)c1 [Compound 239, N-{2-[5-(Benzo[1,3]dioxol-5-ylamino)-[1,3,4]oxadiazol-2-yl]-phenyl}-3-trifluoromethoxy-benzenesulfonamide] | 49%
Cc1cc(C)cc(CS(=O)(=O)Nc2ccccc2-c2nnc(Nc3ccc4c(c3)OCO4)o2)c1 [Compound 240, N-{2-[5-(Benzo[1,3]dioxol-5-ylamino)-[1,3,4]oxadiazol-2-yl]-phenyl}-C-(3,5-dimethyl-phenyl)-methanesulfonamide] | 20%
N#Cc1ccc(S(=O)(=O)Nc2ccccc2-c2nnc(Nc3ccc4c(c3)OCCO4)o2)cc1 [Compound 242, 4-Cyano-N-{2-[5-(2,3-dihydro-benzo[1,4]dioxin-6-ylamino)-[1,3,4]oxadiazol-2-yl]-phenyl}-benzenesulfonamide] | 92%
COc1cc(Nc2ncccc2-c2nnc(NS(=O)(=O)c3cccc(OC)c3)o2)cc(OC)c1 [Compound 243, N-{5-[2-(3,5-Dimethoxy-phenylamino)-pyridin-3-yl]-[1,3,4]oxadiazol-2-yl}-3-methoxy-benzenesulfonamide] | 55%
COc1cc(Nc2ncccc2-c2nnc(N)o2)cc(OC)c1 [Compound 243a, [3-(5-Amino-[1,3,4]oxadiazol-2-yl)-pyridin-2-yl]-(3,5-dimethoxy-phenyl)-amine] | 46%
c1ccc(-c2cnc(Nc3ccc4c(c3)OCCO4)o2)c(NCc2ccc3c(c2)OCCO3)c1 [Compound 245, (2,3-Dihydro-benzo[1,4]dioxin-6-yl)-(5-{2-[(2,3-dihydro-benzo[1,4]dioxin-6-ylmethyl)-amino]-phenyl}-oxazol-2-yl)-amine] | 93%
Fc1ccc(CNc2ccccc2-c2cnc(Nc3ccc4c(c3)OCCO4)o2)cc1F [Compound 247, {5-[2-(3,4-Difluoro-benzylamino)-phenyl]-oxazol-2-yl}-(2,3-dihydro-benzo[1,4]dioxin-6-yl)-amine] | 94%
c1cncc(CNc2ccccc2-c2cnc(Nc3ccc4c(c3)OCCO4)o2)c1 [Compound 248, (2,3-Dihydro-benzo[1,4]dioxin-6-yl)-(5-{2-[(pyridin-3-ylmethyl)-amino]-phenyl}-oxazol-2-yl)-amine] | 79%
COc1cccc(Nc2ncc(-c3ccccc3NCc3cc(OC)cc(OC)c3)o2)c1 [Compound 251, {5-[2-(3,5-Dimethoxy-benzylamino)-phenyl]-oxazol-2-yl}-(3-methoxy-phenyl)-amine] | 30%
COc1cccc(Nc2ncc(-c3ccccc3NCc3ccc(F)c(F)c3)o2)c1 [Compound 252, {5-[2-(3,4-Difluoro-benzylamino)-phenyl]-oxazol-2-yl}-(3-methoxy-phenyl)-amine] | 27%
